Test results from publication PMC10144566, “Pharmacokinetic Profile Evaluation of Novel Combretastatin Derivative, LASSBio-1920, as a Promising Colorectal Anticancer Agent” (Pharmaceutics, 2023).
pIC50: −log10 of the molar value. Where two headings read alike, the source gives them in different places. Blank lines part the entries; values can stand above or below the compound they belong to.

Experiments:
[1] = tested on: HPBMC, human peripheral blood mononuclear cells; experiment: MTT cytotoxicity assay, HPBMC; assay type: cell-based; settings: PBMC, 72 h incubation, read-out: IC50 (95% CI) HPBMC
Description: Heparinized blood was collected from healthy, non-smoking donors who had not taken any drugs during the 15 days prior to sampling. Human peripheral blood mononuclear cells (HPBMC) were isolated by a standard density-gradient centrifugation method over Ficoll-Hypaque® media (Merck-Sigma-Aldrich, St. Louis, MO, USA). HPBMC were washed and resuspended in RPMI-1640 medium supplemented with 20% fetal bovine serum, 2 mM glutamine, 100 U/mL penicillin, and 100 µg/mL streptomycin at 37 °C with 5% CO2. Phytohemagglutinin (3%) was added at the beginning of the culture.
The cytotoxicity of the compounds was determined using the MTT assay. Cells were seeded in 96-well plates as follows: 0.7 × 10^5 cells/well for adherent cancer cells, 0.3 × 10^5 cells/well for suspended cancer cells, and 0.2 × 10^5 cells/well for HPBMCs. The treatments were dissolved in DMSO and added to each well using an automated liquid handler for high-throughput screening (Biomek 3000—Beckman Coulter, Inc., Fullerton, CA, USA) and incubated for either 24, 48, and 72 h. The control group was treated with the vehicle. […] After incubation, the supernatant was decanted and replaced with fresh medium containing MTT (0.5 mg/mL). Three hours later, the MTT’s formazan product was dissolved in 150 µL of pure DMSO, and absorbance was measured at 595 nm (DTX 880 Multimode Detector, Beckman Coulter, Inc., Pasadena, CA, USA).
Data were presented as mean ± standard error of the mean (SEM) from three independent experiments performed in triplicate, calculated using Prism 8.0 (GraphPad/Intuitive Software for Science, San Diego, CA, USA). The IC50 of the compounds was obtained using a non-linear regression of the cytotoxicity curves.

[2] = tested on: MCF-7; design: method as in PMID 23459143; settings: 24 h incubation; cited from earlier work
[3] = tested on: MDA -MB231; design: method as in PMID 23459143; settings: 24 h incubation; cited from earlier work
[4] = tested on: PC-3, prostate adenocarcinoma; experiment: MTT cytotoxicity assay, PC-3; settings: Homo sapiens, 72 h, read-out: IC50 (95% CI) PC-3
Description: (§1) The cytotoxicity of the compounds was determined using the MTT assay [13]. Cells were seeded in 96-well plates as follows: 0.7 × 10^5 cells/well for adherent cancer cells, 0.3 × 10^5 cells/well for suspended cancer cells, and 0.2 × 10^5 cells/well for HPBMCs. […] The control group was treated with the vehicle. […] After incubation, the supernatant was decanted and replaced with fresh medium containing MTT (0.5 mg/mL).

[5] = tested on: PC-9, lung adenocarcinoma (overexpressed EGFR with L858R mutation); experiment: MTT cytotoxicity assay, PC-9; settings: for SI HPBMC/PC-9: IC50 for HPBMC/IC50 for the tumor cell line
Description: as §1

[6] = tested on: N-87, gastric carcinoma; experiment: MTT cytotoxicity assay, N-87; settings: Homo sapiens, 72 h, read-out: IC50 (95% CI) N-87
Description: as §1

[7] = tested on: SF-295, glioblastoma; experiment: MTT cytotoxicity assay, SF-295; settings: Homo sapiens, SF-295, 72 h, read-out: IC50 (95% CI) SF-295
Description: as §1

[8] = tested on: H-1975, non-small cell lung adenocarcinoma; experiment: MTT cytotoxicity assay, H-1975; settings: Homo sapiens, NCI-H1975, 72 h, read-out: IC50 (95% CI) H-1975
Description: as §1

[9] = tested on: HCT-116 human colorectal cancer cells (colon carcinoma); experiment: MTT cytotoxicity assay, HCT-116; settings: for pIC50: Homo sapiens; for SI HPBMC/HCT-116: IC50 for HPBMC/IC50 for the tumor cell line, 72 h
Description: as §1

[10] = PAMPA-BBB permeability; assay type: in vitro ADME; settings: for Pe1 (Experimental): replicate 1; for Pe2 (Experimental): replicate 2; for Papp: PAMPA
Description: (§2) For this, two 96-well plates were placed one above the other, and between them, an artificial hydrophobic polyvinylidene fluoride (PVDF) membrane, which was impregnated with a lipid solution. The top plate works as the donor compartment and the bottom one as the receiver compartment.
Parallel artificial membrane permeation assay for the blood–brain barrier (PAMPA-BBB): It was performed according to the previously reported [26] method established by Lu and coworkers [27].

[11] = design: method as in Literature (reference not given); settings: absorbed fraction of PAMPA-GIT controls; ref Literature (reference not given); cited from earlier work
[12] = PAMPA-GIT permeability; assay type: in vitro ADME; settings: for Papp at 5 h, 0.5 mM: PAMPA-GIT, room temperature, read-out: Pe (Experimental); for Fa%: PAMPA-GIT predicted absorbed fraction, 0–30% low, 30–69% medium, 70–100% high absorption
Description: as §2
Parallel artificial membrane permeation assay for gastrointestinal tract (GIT-PAMPA): 1% (w/v) phosphatidylcholine was mixed with dodecane as a lipid solution to impregnate the PVDF membrane between the donor and receiver plates to stimulate intestinal permeability. […] A total of 180 µL of the mixture of PBS and DMSO (v/v 95:5) was added to the recipient plate, and 180 µL of the test solution was added to the donor plate. Immediately and carefully, the donor plate was placed above the receiver plate and incubated for 5 h at room temperature. The solution captured on the receptor plate was removed and subsequently analyzed by a UV detector (SpectraMax 5®—Molecular Devices, Sao Jose, CA, USA). The experiments were performed in quadruplicate.

[13] = tested on: MDA-MB435; design: method as in PMID 16722619, PMID 21488686; settings: lowest IC50 value among cancer cell lines; cited from earlier work
[14] = Homo sapiens, 72 h, read-out: IC50 (95% CI) PC-9
[15] = HCT-116, 72 h, read-out: IC50 (95% CI) HCT-116

SMILES: COc1ccc(/C=C\c2cc(OC)c(OC)c(OC)c2)cc1O [CA4, Combretastatin A-4]
- pIC50 [1]: 8.33
- pIC50 [2]: 8.00
- pIC50 [3]: 6.96
- pIC50 [4]: 8.10
- pIC50 ([5]; Homo sapiens, 24 h, read-out: IC50 (95% CI) PC-9 24 h): 5.59
- pIC50 ([5]; Homo sapiens, 48 h, read-out: IC50 (95% CI) PC-9 48 h): 5.86
- pIC50 [5, 14]: 6.96
- pIC50 ([5]; Homo sapiens, 72 h, read-out: IC50 (95% CI) PC-9 72 h): 6.96
- SI HPBMC/PC-9 ([5]; 72 h): 0.043
- pIC50 [6]: 5.48
- pIC50 [7]: 8.10
- pIC50 [8]: 7.46
- pIC50 ([9]; HCT-116, 48 h, read-out: IC50 (95% CI) HCT-116 48 h): 6.70
- pIC50 [9, 15]: 8.68
- pIC50 ([9]; HCT-116, 72 h, read-out: IC50 (95% CI) HCT-116 72 h): 8.68
- SI HPBMC/HCT-116 [9]: 2.24

SMILES: Cn1c(=O)c2c(ncn2C)n(C)c1=O [Caffeine]
- Pe1 (Experimental) ([10]; PAMPA-BBB): 0.36 10–6 cm/s
- Pe2 (Experimental) ([10]; PAMPA-BBB): −0.10 10–6 cm/s

SMILES: CO/N=C(\C(=O)N[C@@H]1C(=O)N2C(C(=O)O)=C(CSc3nc(=O)c(=O)[nH]n3C)CS[C@H]12)c1csc(N)n1 [Ceftriaxone]
- Fa (Literature) [11]: 1

- Papp at 5 h, 0.5 mM [12]: 26 ×10⁻⁶ cm/s
SMILES: O=c1ccc2ccccc2o1 [Coumarin]

- Fa% [12]: 100.0%
SMILES: O=C(O)Cc1ccccc1Nc1c(Cl)cccc1Cl [Diclofenac]
- Fa (Literature) [11]: 100

- Papp ([10]; PAMPA-BBB classification: absorbed by the Central Nervous System, read-out: CNS Permeability): < 1.13 ×10⁻⁶ cm/s
- Papp ([10]; PAMPA-BBB, mean, read-out: Pe (Experimental Mean)): 0.3 ×10⁻⁶ cm/s
- Pe1 (Experimental) ([10]; PAMPA-BBB): 0.48 10–6 cm/s
- Pe2 (Experimental) ([10]; PAMPA-BBB): 0.06 10–6 cm/s
SMILES: CCn1cc(C(=O)O)c(=O)c2cc(F)c(N3CCNCC3)nc21 [Enoxacin]

SMILES: COc1cc(C(=O)NN=Cc2ccccc2)cc(OC)c1OC [LASSBio-1586]
- pIC50 [1]: 5.87
- pIC50 [13]: 7.19
- pIC50 [4]: 6.04
- pIC50 [5, 14]: 6.12
- SI HPBMC/PC-9 ([5]; 72 h): 1.8
- pIC50 [6]: 6.09
- pIC50 [7]: 6.59
- pIC50 [8]: 5.55
- pIC50 [9, 15]: 6.49
- SI HPBMC/HCT-116 [9]: 4.2

- Fa% [12]: 51.39%
SMILES: CCn1cc(C(=O)O)c(=O)c2cc(F)c(N3CCNCC3)cc21 [Norfloxacin]

SMILES: CCOc1cc2ncc(C#N)c(Nc3ccc(F)c(Cl)c3)c2cc1NC(=O)/C=C/CN(C)C [PELITINIB, Pelitinib]
- pIC50 ([5]; read-out: IC50 (95% CI) PC-9, 72 h incubation, MTT): 6.28
- pIC50 [6]: 6.48
- pIC50 [8]: 5.36

- Fa% [12]: 16.50%
- Papp at 5 h, 0.5 mM [12]: 0.2 ×10⁻⁶ cm/s
SMILES: CNC(=C[N+](=O)[O-])NCCSCc1ccc(CN(C)C)o1 [Ranitidine]

SMILES: CCN(CC)CCNC(=O)c1c(C)[nH]c(/C=C2\C(=O)Nc3ccc(F)cc32)c1C [SUNITINIB, Sunitinib]
- pIC50 [6]: 4.96
- pIC50 [8]: 5.35
